The values that follow are results of earlier work, collected in patent US7776886B2, “Cyclopropyl piperidine glycine transporter inhibitors” (Merck Sharp & Dohme Corp., priority 2004, dated 2010).

The conditions of data set [1]: schizophrenia patients poorly responsive to antipsychotic drugs.
The next data set relates to NMDA receptor. As to conditions: rat.
The conditions of data set [2]: mice.

Take `CNCC(=O)O` [sarcosine]: in data set [1], the “effect on positive, negative and cognitive symptoms” value is “beneficial effect”.

Regarding `CN(CCC(Oc1ccc(-c2ccccc2)cc1)c1ccc(F)cc1)CC(=O)O` (stereo not shown) [NFPS, (N-[3-(4′-fluorophenyl)-3-(4′-phenylphenoxy)propyl])sarcosine], in the data set on NMDA receptor, the NMDA receptor activity result is given as “potentiates” and the “NMDA receptor-dependent long-term potentiation” value is “potentiates”. Besides, the “pre-pulse inhibition (measure of sensory gating)” value in data set [2] was “enhance pre-pulse inhibition”.
